From the supplement of paper PMC6723410

Tested on: GUMC-403
Assay: viability at highest tested concentration (max response) relative to DMSO (% of DMSO control); higher = less cytotoxic
Details: library / dose series: MIPE library, 11-point 1:3 dilution, 48 h
Procedure, shortened: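 Viability at the highest tested concentration is given relative to vehicle control. For this, conditionally reprogrammed patient-derived GUMC-403 papilloma cells at 700/well in 1536-well plates were exposed to 23 nL of pinned compound for 48 h. Luminescence from CellTiter-Glo was read on a ViewLux and scaled between empty wells (0%) and vehicle wells (100%).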

Row | SMILES | viability (top concentration 46.1 µM) | also measured
1 | N#C[C@H](O[C@@H]1O[C@H](CO[C@@H]2O[C@H](CO)[C@@H](O)[C@H](O)[C@H]2O)[C@@H](O)[C@H](O)[C@H]1O)c1ccccc1 | 98.6 | –
2 | CNCc1ccc(-c2[nH]c3cc(F)cc4c3c2CCNC4=O)cc1 | 93.2 | –
3 | O=C1c2cccc(O)c2C(=O)c2c(O)cc(CO)cc21 | 92.9 | –
4 | Cc1c[nH]c(-c2cnc(NCCNc3ccc(C#N)cn3)nc2-c2ccc(Cl)cc2Cl)n1 | 77.1 | –
5 | c1ccc(CNc2nc(N3CCOc4ccccc43)nc3c2CCCC3)cc1 | 131 | –
6 | CC(C)OC(=O)C(C(=O)OC(C)C)=C1S\C=C/S1 | 104 | –
7 | CN1C2=CC(=O)/C(=N/NC(N)=O)C=C2CC1S(=O)(=O)[O-].[Na+] (stereo not drawn) | 102 | –
8 | CCN(CC)CC#CCOC(=O)C(O)(c1ccccc1)C1CCCCC1 (stereo not drawn) | 127 | –
9 | CN(C)Cc1c(C(=O)NCCOc2ccc(C(=O)NO)cc2)oc2ccccc12 | 82.5 | –
10 | CN(C)c1ccc(Nc2nc(N)n(C(=O)c3c(F)cccc3F)n2)cc1 | 103 | –
11 | C[C@@H]1C(=O)O[C@H]2CC34[C@H]5C[C@@H](C(C)(C)C)C36[C@@H](OC(=O)[C@@H]6O)O[C@@]4(C(=O)O5)[C@]21O (stereo partly drawn) | 101 | –
12 | NC1(c2ccc(-c3nc4ccn5c(=O)[nH]nc5c4cc3-c3ccccc3)cc2)CCC1 | 90.4 | –
13 | C[C@@H]1C(=O)OC2[C@H](O)[C@]34[C@H]5C[C@@H](C(C)(C)C)[C@]36[C@@H](OC(=O)[C@@H]6O)O[C@@]4(C(=O)O5)[C@]21O (stereo partly drawn) | 108 | –
14 | CN(C)[C@H]\1[C@@H]2[C@@H](O)[C@H]3\C(=C(O)/[C@]2(O)C(=O)\C(=C1O)C(N)=O)C(=O)C4=C(C=CC=C4O)[C@@]3(C)O | 114 | –
15 | [O-]C(=O)C1=C(C(=C(Cl)C(=C1Cl)Cl)Cl)C/2=C/3\C=C(I)/C(=O)/C(=C3OC4=C2C=C(I)C(=C4I)[O-])I | 82 | –
16 | COc1cc2nccc(Oc3ccc(NC(=O)NC4CC4)c(Cl)c3)c2cc1C(N)=O | 89.9 | –
17 | Cc1coc2c1C(=O)C(=O)c1c-2ccc2c1CCCC2(C)C | 113 | –
18 | N#C/C(C(=O)c1ccc(Cl)cc1Cl)=C1/NC(=O)c2ccc(Cl)cc2N1 | 100 | –
19 | COc1ccc2c(OCc3nnc4ccc(-c5ccccc5)nn34)ccnc2c1 | 126 | –
20 | COc1cc2c(N3CCN(C(=O)Nc4ccc(OC(C)C)cc4)CC3)ncnc2cc1OCCCN1CCCCC1 | 109 | –
21 | Cc1ccc(NC(=O)c2ccc(CN3CCN(C)CC3)cc2)cc1Nc1nc(-c2cccnc2)cs1 | 130 | –
22 | COc1cc2nc(N3CCN(C(=O)C4CCCO4)CC3)nc(N)c2cc1OC (stereo not drawn) | 126 | –
23 | COc1cc(O)c2c(c1)C(=O)c1cc(C)cc(O)c1C2=O | – | viability (top concentration 23 µM): 114
24 | CO/C1=C/C(C)=C\[C@@H](C)[C@@H](O)[C@@H](C)C/C(C)=C\C=C/[C@H](OC)[C@@H]([C@@H](C)[C@@H](O)[C@H](C)[C@@]2(O)C[C@@H](O)[C@H](C)[C@@H](C(C)C)O2)OC1=O | 93 | –
25 | COC1=C(OC)C(=O)C(C/C=C(\C)CC/C=C(\C)CC/C=C(\C)CC/C=C(\C)CC/C=C(\C)CC/C=C(\C)CC/C=C(\C)CC/C=C(\C)CC/C=C(\C)CCC=C(C)C)=C(C)C1=O | 118 | –
26 | OC[C@@H](O)[C@@H](O)[C@H](O)[C@@H](O)CO | 128 | –

Row | SMILES | viability (top concentration 46.1 µM) | also measured
27 | CC[C@H](CC[C@@H](C)[C@H]1CC[C@H]2[C@@H]3C\C=C/4C[C@@H](O)CC[C@]4(C)[C@H]3CC[C@]12C)C(C)C | 101 | –
28 | CCC1=C2C=C(OC(=O)N3CCC(CC3)N4CCCCC4)C=CC2=NC\5=C1CN6C(=O)\C7=C(/C=C56)[C@@](O)(CC)C(=O)OC7 | 56.1 | –
29 | FC(F)(F)c1ccc(/C=C/c2nc(COc3ccc(CCCCn4ccnn4)cc3)co2)cc1 | 98.1 | –
30 | C[C@]12CC[C@H]3[C@@H](CC[C@@]45O[C@@H]4C(O)=C(C#N)C[C@]35C)[C@@H]1CC[C@@H]2O | 124 | –
31 | CC(C)(C)NC(=O)Nc1cccc(Nc2ncc(F)c(NC(C)(C)CO)n2)c1 | 121 | –
32 | COC(=O)\C1=C\CCN(C)C1 | 111 | –
33 | CCCCC(=O)O[C@]1(C(=O)CO)[C@H](C)C[C@H]2[C@@H]3CCC4=CC(=O)C=C[C@]4(C)[C@@]3(F)[C@@H](O)C[C@@]21C | 121 | –
34 | C=C1C(=O)[C@@]23C(CC[C@@H]1[C@H]2O)[C@@]12CO[C@]3(O)[C@@H](O)[C@@H]1C(C)(C)CC[C@@H]2O (stereo partly drawn) | 119 | –
35 | O=C(O)CSCC(=O)NC1CCSC1=O (stereo not drawn) | 139 | –
36 | CC(C)OC(=O)/C1=C/N(CC(C)(C)C2=C1[NH]C3=CC=CC=C23)C(=O)C4=CC=C(F)C(=C4)F | 107 | –
37 | Clc1ccc(COC(Cn2ccnc2)c2ccc(Cl)cc2Cl)cc1 (stereo not drawn) | 117 | –
38 | CCC(CCCC)COC(=O)C(\C#N)=C(\c1ccccc1)c2ccccc2 (stereo not drawn) | 113 | –
39 | C/C(=C\c1csc(C)n1)[C@@H]1C[C@@H]2O[C@]2(C)CCC[C@H](C)[C@H](O)[C@@H](C)C(=O)C(C)(C)[C@@H](O)CC(=O)O1 | 102 | –
40 | Cl.c1cnc2cc3c(cc2n1)C1CNCC3C1 | 107 | –
41 | C/C1=C2/[N]3[Co+]456([OH])<-[N]7=C1[C@@H](CCC(N)=O)C(C)(C)/C7=C/C1=[N]->4C(=C(/C)C4=[N]->5[C@@](C)([C@H]3[C@H](CC(N)=O)[C@@]2(C)CCC(=O)NC[C@@H](C)OP(=O)([O-])O[C@H]2[C@@H](O)[C@@H](n3c[n]->6c5cc(C)c(C)cc53)O[C@@H]2CO)[C@@](C)(CC(N)=O)[C@@H]4CCC(N)=O)/[C@@](C)(CC(N)=O)[C@@H]1CCC(N)=O | 91.2 | –
42 | OCCN1CCN(CCCN2c3ccccc3Sc3ccc(C(F)(F)F)cc32)CC1 | 97.2 | –
43 | C[C@@H]1CC[C@@]2(CC[C@]3(C)\C(=C/C[C@@H]4[C@@]5(C)CC[C@H](O)C(C)(C)[C@@H]5CC[C@@]34C)[C@@H]2[C@H]1C)C(O)=O | – | viability (top concentration 92.2 µM): 95.2
44 | C=CCc1cc(OC)c(O)c(C(=O)NCCO)c1 | 118 | –
45 | CN(CC(=O)N(Cc1ccc(C2CCCCC2)cc1)c1ccc(C(=O)O)c(O)c1)[S+](=O)([O-])c1c(F)c(F)c(F)c(F)c1F | 112 | –
46 | N#C/C(=C1/Nc2ccccc2S1)c1ccnc(OCc2ccc(CN3CCOCC3)cc2)n1 | 91.3 | –
47 | Cc1cccc2c1CC[C@H](CN1CCC(c3c(Cl)cccc3Cl)CC1)C[C@@H]2O | 89 | –
48 | CCC(c1ccc(O)cc1)C(CC)c1ccc(O)cc1 (stereo not drawn) | 116 | –
49 | Cl.Nc1ccn([C@@H]2O[C@H](CO)[C@@H](O)C2(F)F)c(=O)n1 | 107 | –
50 | CC(C)OC(=O)C(C)(C)Oc1ccc(C(=O)c2ccc(Cl)cc2)cc1 | 117 | –
51 | COC1=CC2=C(C=C1OC)[C@H]3[C@@H](CO2)OC4=C(C=CC5=C4\C=C/C(C)(C)O5)C3=O | 115 | –
52 | CN(C(=O)c1ccc(F)cc1C(F)(F)F)C1CCN(c2nnc(-c3ccnn3C)c3ccccc23)CC1 | 78.1 | –

Row | SMILES | viability (top concentration 46.1 µM) | also measured
53 | Cc1cc(Nc2cc(N3CCN(C)CC3)nc(Sc3ccc(NC(=O)C4CC4)cc3)n2)[nH]n1 | 86.3 | –
54 | Clc1ccc(COC(Cn2ccnc2)c2ccc(Cl)cc2Cl)c(Cl)c1 (stereo not drawn) | 92.5 | –
55 | COC(=O)[C@@H]1[C@H]2C[C@H]3c4[nH]c5ccccc5c4CCN3C[C@@H]2CC[C@@H]1O | 128 | –
56 | C\C1=C(\C=C(\C#N)C(=O)N1)C2=CC=NC=C2 | 119 | –
57 | Nc1cccc2c1CN([C@H]1CCC(=O)NC1=O)C2=O | – | viability (top concentration 92.2 µM): 106
58 | CCCn1c(=O)c2[nH]c(C34CC5CC3C[C@@H](C5)C4)nc2n(CCC)c1=O | 122 | –
59 | O=C(O)/C=C/c1ccc(O)c(O)c1 | 120 | –
60 | CC(C)n1nc(-c2ccc3oc(N)nc3c2)c2c(N)ncnc21 | 29.8 | –
61 | CC1=C(/C=C/C(C)=C/C=C/C(C)=C/C=C/C=C(C)/C=C/C=C(C)/C=C/C2=C(C)CCCC2(C)C)C(C)(C)CCC1 | 113 | –
62 | CCOc1cc(C(=O)Nc2ccc(Cl)c(-c3nc4ccccc4[nH]3)c2)cc(OCC)c1OCC | 90.5 | –
63 | Oc1cc2c(cc1O)C1c3ccc(O)c(O)c3OCC1(O)C2 (stereo not drawn) | 129 | –
64 | NC1=NC=C(C=C1)C2=CC=C3N=CC\4=C(N(C(=O)\C=C4)C5=CC(=CC=C5)C(F)(F)F)C3=C2 | 43.7 | –
65 | O=C1NC(=O)/C(=C/c2cccc(C(F)(F)F)c2)S1 | 106 | –
66 | Cc1cc(Nc2ncnc3ccc(-c4ccc(CNCC[S+](C)(=O)[O-])o4)cc23)ccc1Oc1ccn2ncnc2c1 | 99.8 | –
67 | COC(=O)N[C@H](C(=O)N1CCC[C@H]1c1ncc(-c2ccc(-c3ccc(-c4cnc([C@@H]5CCCN5C(=O)[C@@H](NC(=O)OC)C(C)C)[nH]4)cc3)cc2)[nH]1)C(C)C | 138 | –
68 | CN(C)CCC=C1C2=C(C=CC=C2)\C=C/C3=C1C=CC=C3 | 115 | –
69 | OC[C@H]1O[C@H](C[C@@H]1O)N2/C=C(C(=O)NC2=O)/C(F)(F)F | 103 | –
70 | CC(C)(C)NC(=O)[C@H]1CC[C@H]2[C@@H]3CC[C@H]4NC(=O)\C=C/[C@]4(C)[C@H]3CC[C@]12C | 66.2 | –
71 | COc1nc(N)nc2c1ncn2[C@@H]1O[C@H](CO)[C@@H](O)[C@@H]1O | 120 | –
72 | FC1=CC=C(CN2\C=C/C=C(/C(=O)N[C@@H](COC3=CC4=C(NC(=O)N4)C=C3)C5=CC=CC=C5)C2=O)C=C1F | 103 | –
73 | CC(C)=CC[C@@H](O)C/1=C/C(=O)C2=C(O)C=CC(=C2C1=O)O | 78.5 | –
74 | CCCCCCNC(=O)N1\C=C(F)/C(=O)NC1=O | 106 | –
75 | CN1CCN2c3ccccc3Cc3ccccc3C2C1 (stereo not drawn) | 106 | –
76 | COC1=C(CC=C(C)C)C2=C(\C=C/C(=O)O2)C=C1 | 92 | –
77 | CC(C)(C)NCC(O)c1ccc(O)c(CO)c1 (stereo not drawn) | 109 | –
78 | Cc1coc2c1C(=O)C(=O)c1c-2ccc2c(C)cccc12 | 115 | –
